Laboratory results as given in ChEMBL document CHEMBL3046822, “Synthesis, antiplatelet aggregation activity, and molecular modeling study of novel substituted-piperazine analogues” (2011).
The source made the active and inactive calls. The rule behind the calls is not given here.

Legend:
[1] = Antiaggregating activity in Homo sapiens (human) platelet rich plasma assessed as collagen-induced platelet aggregation at 2.5 uM incubated for 4 min prior to collagen-induction measured for 5.5 min by turbidometric analysis (reference value: 50 to 98%); format: functional
[2] = Antiaggregating activity in Homo sapiens (human) platelet rich plasma assessed as ADP-induced platelet aggregation at 1 uM incubated for 4 min prior to ADP-induction measured for 5.5 min by turbidometric analysis (reference value: 54 to 88%); format: functional
[3] = Antiaggregating activity in Homo sapiens (human) platelet rich plasma assessed as ADP-induced platelet aggregation at 2.5 uM incubated for 4 min prior to ADP-induction measured for 5.5 min by turbidometric analysis (reference value: 54 to 88%); format: functional
[4] = Antiaggregating activity in Homo sapiens (human) platelet rich plasma assessed as collagen-induced platelet aggregation at 1 uM incubated for 4 min prior to collagen-induction measured for 5.5 min by turbidometric analysis (reference value: 50 to 98%); format: functional
[5] = Antiaggregating activity in Homo sapiens (human) platelet rich plasma assessed as adrenaline-induced platelet aggregation at 1 uM incubated for 4 min prior to adrenaline-induction measured for 5.5 min by turbidometric analysis (reference value: 65 to 100%); format: functional
[6] = Antiaggregating activity in Homo sapiens (human) platelet rich plasma assessed as ristocetin-induced platelet aggregation at 1 uM incubated for 4 min prior to ristocetin-induction measured for 5.5 min by turbidometric analysis (reference value: 65 to 99%); format: functional
Platelet [7] = assay: Antiaggregating activity in Homo sapiens (human) platelet rich plasma assessed as inhibition of ristocetin-induced platelet aggregation at 2.5 uM incubated for 4 min prior to ristocetin-induction measured for 5.5 min by turbidometric analysis; format: functional, cell-free
[8] = Antiaggregating activity in Homo sapiens (human) platelet rich plasma assessed as arachidonic acid-induced platelet aggregation at 0.6 uM incubated for 4 min prior to arachidonic acid-induction measured for 5.5 min by turbidometric analysis (reference value: 55 to 100%); format: functional
[9] = Antiaggregating activity in Homo sapiens (human) platelet rich plasma assessed as adrenaline-induced platelet aggregation at 2.5 uM incubated for 4 min prior to adrenaline-induction measured for 5.5 min by turbidometric analysis (reference value: 65 to 100%); format: functional
[10] = Antiaggregating activity in Homo sapiens (human) platelet rich plasma assessed as arachidonic acid-induced platelet aggregation at 1 uM incubated for 4 min prior to arachidonic acid-induction measured for 5.5 min by turbidometric analysis (reference value: 55 to 100%); format: functional
Platelet [11] = assay: Antiaggregating activity in Homo sapiens (human) platelet rich plasma assessed as inhibition of adrenaline-induced platelet aggregation at 5 uM incubated for 4 min prior to adrenaline-induction measured for 5.5 min by turbidometric analysis; format: functional, cell-free
Platelet [12] = assay: Antiaggregating activity in Homo sapiens (human) platelet rich plasma assessed as inhibition of collagen-induced platelet aggregation at 10 uM incubated for 4 min prior to collagen-induction measured for 5.5 min by turbidometric analysis; format: functional, cell-free
Platelet [13] = assay: Antiaggregating activity in Homo sapiens (human) platelet rich plasma assessed as inhibition of arachidonic acid-induced platelet aggregation at 5 uM incubated for 4 min prior to arachidonic acid-induction measured for 5.5 min by turbidometric analysis; format: functional, cell-free
Platelet [14] = assay: Antiaggregating activity in Homo sapiens (human) platelet rich plasma assessed as inhibition of adrenaline-induced platelet aggregation at 4 uM incubated for 4 min prior to adrenaline-induction measured for 5.5 min by turbidometric analysis; format: functional, cell-free
[15] = Antiaggregating activity in Homo sapiens (human) platelet rich plasma assessed as disaggregation of ADP-induced platelet aggregation at 5 uM incubated for 4 min prior to ADP-induction measured for 5.5 min by turbidometric analysis relative to control; format: functional
Platelet [16] = assay: Antiaggregating activity in Homo sapiens (human) platelet rich plasma assessed as inhibition of ADP-induced platelet aggregation at 10 uM incubated for 4 min prior to ADP-induction measured for 5.5 min by turbidometric analysis; format: functional, cell-free
Platelet [17] = assay: Antiaggregating activity in Homo sapiens (human) platelet rich plasma assessed as inhibition of adrenaline-induced platelet aggregation at 10 uM incubated for 4 min prior to adrenaline-induction measured for 5.5 min by turbidometric analysis; format: functional, cell-free
[18] = Antiaggregating activity in Homo sapiens (human) platelet rich plasma assessed as ristocetin-induced platelet aggregation at 4 uM incubated for 4 min prior to ristocetin-induction measured for 5.5 min by turbidometric analysis (reference value: 65 to 99%); format: functional
Platelet [19] = assay: Antiaggregating activity in Homo sapiens (human) platelet rich plasma assessed as inhibition of arachidonic acid-induced platelet aggregation at 10 uM incubated for 4 min prior to arachidonic acid-induction measured for 5.5 min by turbidometric analysis; format: functional, cell-free
[20] = Antiaggregating activity in Homo sapiens (human) platelet rich plasma assessed as ristocetin-induced platelet aggregation at 5 uM incubated for 4 min prior to ristocetin-induction measured for 5.5 min by turbidometric analysis (reference value: 65 to 99%); format: functional
Platelet [21] = assay: Antiaggregating activity in Homo sapiens (human) platelet rich plasma assessed as inhibition of arachidonic acid-induced platelet aggregation at 4 uM incubated for 4 min prior to arachidonic acid-induction measured for 5.5 min by turbidometric analysis; format: functional, cell-free
Platelet [22] = assay: Antiaggregating activity in Homo sapiens (human) platelet rich plasma assessed as inhibition of collagen-induced platelet aggregation at 4 uM incubated for 4 min prior to collagen-induction measured for 5.5 min by turbidometric analysis; format: functional, cell-free
Platelet [23] = assay: Antiaggregating activity in Homo sapiens (human) platelet rich plasma assessed as inhibition of collagen-induced platelet aggregation at 5 uM incubated for 4 min prior to collagen-induction measured for 5.5 min by turbidometric analysis; format: functional, cell-free
[24] = Antiaggregating activity in Homo sapiens (human) platelet rich plasma assessed as ristocetin-induced platelet aggregation at 10 uM incubated for 4 min prior to ristocetin-induction measured for 5.5 min by turbidometric analysis (reference value: 65 to 99%); format: functional
[25] = Antiaggregating activity in Homo sapiens (human) platelet rich plasma assessed as disaggregation of ADP-induced platelet aggregation at 4 uM incubated for 4 min prior to ADP-induction measured for 5.5 min by turbidometric analysis relative to control; format: functional
Platelet [26] = assay: Antiaggregating activity in Homo sapiens (human) platelet rich plasma assessed as inhibition of adrenaline-induced platelet aggregation at 0.5 uM incubated for 4 min prior to adrenaline-induction measured for 5.5 min by turbidometric analysis; format: functional, cell-free
Platelet [27] = assay: Antiaggregating activity in Homo sapiens (human) platelet rich plasma assessed as inhibition of collagen-induced platelet aggregation at 0.5 uM incubated for 4 min prior to collagen-induction measured for 5.5 min by turbidometric analysis; format: functional, cell-free
[28] = Antiaggregating activity in Homo sapiens (human) platelet rich plasma assessed as disaggregation of ADP-induced platelet aggregation at 0.5 uM incubated for 4 min prior to ADP-induction measured for 5.5 min by turbidometric analysis relative to control; format: functional
Platelet [29] = assay: Antiaggregating activity in Homo sapiens (human) platelet rich plasma assessed as inhibition of adrenaline-induced platelet aggregation at 0.25 uM incubated for 4 min prior to adrenaline-induction measured for 5.5 min by turbidometric analysis; format: functional, cell-free
Platelet [30] = assay: Antiaggregating activity in Homo sapiens (human) platelet rich plasma assessed as inhibition of adrenaline-induced platelet aggregation at 1 uM incubated for 4 min prior to adrenaline-induction measured for 5.5 min by turbidometric analysis; format: functional, cell-free
[31] = Antiaggregating activity in Homo sapiens (human) platelet rich plasma assessed as ADP-induced platelet aggregation at 0.25 uM incubated for 4 min prior to ADP-induction measured for 5.5 min by turbidometric analysis (reference value: 54 to 88%); format: functional
Platelet [32] = assay: Antiaggregating activity in Homo sapiens (human) platelet rich plasma assessed as inhibition of adrenaline-induced platelet aggregation at 0.125 uM incubated for 4 min prior to adrenaline-induction measured for 5.5 min by turbidometric analysis; format: functional, cell-free
Platelet [33] = assay: Antiaggregating activity in Homo sapiens (human) platelet rich plasma assessed as inhibition of ADP-induced platelet aggregation at 1 uM incubated for 4 min prior to ADP-induction measured for 5.5 min by turbidometric analysis; format: functional, cell-free
[34] = Antiaggregating activity in Homo sapiens (human) platelet rich plasma assessed as collagen-induced platelet aggregation at 0.25 uM incubated for 4 min prior to collagen-induction measured for 5.5 min by turbidometric analysis (reference value: 50 to 98%); format: functional
Platelet [35] = assay: Antiaggregating activity in Homo sapiens (human) platelet rich plasma assessed as inhibition of collagen-induced platelet aggregation at 1 uM incubated for 4 min prior to collagen-induction measured for 5.5 min by turbidometric analysis; format: functional, cell-free
[36] = Antiaggregating activity in Homo sapiens (human) platelet rich plasma assessed as arachidonic acid-induced platelet aggregation at 0.125 uM incubated for 4 min prior to arachidonic acid-induction measured for 5.5 min by turbidometric analysis (reference value: 55 to 100%); format: functional
Platelet [37] = assay: Antiaggregating activity in Homo sapiens (human) platelet rich plasma assessed as inhibition of arachidonic acid-induced platelet aggregation at 0.25 uM incubated for 4 min prior to arachidonic acid-induction measured for 5.5 min by turbidometric analysis; format: functional, cell-free
[38] = Antiaggregating activity in Homo sapiens (human) platelet rich plasma assessed as ADP-induced platelet aggregation at 0.125 uM incubated for 4 min prior to ADP-induction measured for 5.5 min by turbidometric analysis (reference value: 54 to 88%); format: functional
Platelet [39] = assay: Antiaggregating activity in Homo sapiens (human) platelet rich plasma assessed as inhibition of arachidonic acid-induced platelet aggregation at 0.5 uM incubated for 4 min prior to arachidonic acid-induction measured for 5.5 min by turbidometric analysis; format: functional
[40] = Antiaggregating activity in Homo sapiens (human) platelet rich plasma assessed as ristocetin-induced platelet aggregation at 0.5 uM incubated for 4 min prior to ristocetin-induction measured for 5.5 min by turbidometric analysis (reference value: 65 to 99%); format: functional
[41] = Antiaggregating activity in Homo sapiens (human) platelet rich plasma assessed as ristocetin-induced platelet aggregation at 0.25 uM incubated for 4 min prior to ristocetin-induction measured for 5.5 min by turbidometric analysis (reference value: 65 to 99%); format: functional
[42] = Antiaggregating activity in Homo sapiens (human) platelet rich plasma assessed as ristocetin-induced platelet aggregation at 0.125 uM incubated for 4 min prior to ristocetin-induction measured for 5.5 min by turbidometric analysis (reference value: 65 to 99%); format: functional
[43] = Antiaggregating activity in Homo sapiens (human) platelet rich plasma assessed as collagen-induced platelet aggregation at 0.125 uM incubated for 4 min prior to collagen-induction measured for 5.5 min by turbidometric analysis (reference value: 50 to 98%); format: functional
Platelet [44] = assay: Antiaggregating activity in Homo sapiens (human) platelet rich plasma assessed as inhibition of arachidonic acid-induced platelet aggregation at 1 uM incubated for 4 min prior to arachidonic acid-induction measured for 5.5 min by turbidometric analysis; format: functional, cell-free
[45] = Antiaggregating activity in Homo sapiens (human) platelet rich plasma assessed as ADP-induced platelet aggregation at 0.6 uM incubated for 4 min prior to ADP-induction measured for 5.5 min by turbidometric analysis (reference value: 54 to 88%); format: functional
Platelet [46] = assay: Antiaggregating activity in Homo sapiens (human) platelet rich plasma assessed as inhibition of arachidonic acid-induced platelet aggregation at 3 uM incubated for 4 min prior to arachidonic acid-induction measured for 5.5 min by turbidometric analysis; format: functional, cell-free
Platelet [47] = assay: Antiaggregating activity in Homo sapiens (human) platelet rich plasma assessed as inhibition of adrenaline-induced platelet aggregation at 3 uM incubated for 4 min prior to adrenaline-induction measured for 5.5 min by turbidometric analysis; format: functional, cell-free
Platelet [48] = assay: Antiaggregating activity in Homo sapiens (human) platelet rich plasma assessed as inhibition of collagen-induced platelet aggregation at 3 uM incubated for 4 min prior to collagen-induction measured for 5.5 min by turbidometric analysis; format: functional, cell-free
Platelet [49] = assay: Antiaggregating activity in Homo sapiens (human) platelet rich plasma assessed as inhibition of adrenaline-induced platelet aggregation at 0.6 uM incubated for 4 min prior to adrenaline-induction measured for 5.5 min by turbidometric analysis; format: functional, cell-free
Platelet [50] = assay: Antiaggregating activity in Homo sapiens (human) platelet rich plasma assessed as inhibition of ADP-induced platelet aggregation at 3 uM incubated for 4 min prior to ADP-induction measured for 5.5 min by turbidometric analysis; format: functional, cell-free
Platelet [51] = assay: Antiaggregating activity in Homo sapiens (human) platelet rich plasma assessed as inhibition of ristocetin-induced platelet aggregation at 3 uM incubated for 4 min prior to ristocetin-induction measured for 5.5 min by turbidometric analysis; format: functional, cell-free
[52] = Antiaggregating activity in Homo sapiens (human) platelet rich plasma assessed as ristocetin-induced platelet aggregation at 0.6 uM incubated for 4 min prior to ristocetin-induction measured for 5.5 min by turbidometric analysis (reference value: 65 to 99%); format: functional
[53] = Antiaggregating activity in Homo sapiens (human) platelet rich plasma assessed as collagen-induced platelet aggregation at 0.6 uM incubated for 4 min prior to collagen-induction measured for 5.5 min by turbidometric analysis (reference value: 50 to 98%); format: functional
[54] = Antiaggregating activity in Homo sapiens (human) platelet rich plasma assessed as disaggregation of arachidonic acid-induced platelet aggregation at 0.06 uM incubated for 4 min prior to arachidonic acid-induction measured for 5.5 min by turbidometric analysis relative to control; format: functional

O=C(c1ccc[n+](Cc2ccccc2)c1)N1CCN(c2ccccc2Cl)CC1.[Cl-]
Activity [1]: 82%
Activity [2]: 83%
Activity [3]: 83%
Activity [4]: 80%
Activity [5]: 75%
Activity [6]: 89%
inhibition (Platelet [7]): Active
Activity [8]: 53%
Activity [9]: 12%
Activity [10]: 67%

O=C(c1ccc[n+](Cc2ccc(F)cc2)c1)N1CCN(c2ccccc2Cl)CC1.[Cl-]
inhibition (Platelet [11]): Active
inhibition (Platelet [12]): Active
inhibition (Platelet [13]): Active
inhibition (Platelet [14]): Active
Activity [15]: 40%
inhibition (Platelet [16]): Active
inhibition (Platelet [17]): Active
Activity [18]: 88%
inhibition (Platelet [19]): Active
Activity [20]: 87%
inhibition (Platelet [21]): Active
inhibition (Platelet [22]): Active
inhibition (Platelet [23]): Active
Activity [24]: 24%
Activity [25]: 60%

O=C(c1ccc[n+](Cc2ccc(Br)cc2)c1)N1CCN(c2ccccc2Cl)CC1.[Br-]
inhibition (Platelet [26]): Active
inhibition (Platelet [27]): Active
Activity [28]: 52%
inhibition (Platelet [29]): Active
inhibition (Platelet [30]): Active
Activity [31]: 74%
inhibition (Platelet [32]): Active
inhibition (Platelet [33]): Active
Activity [34]: 77%
inhibition (Platelet [35]): Active
Activity [36]: 68%
inhibition (Platelet [37]): Active
Activity [38]: 84%
inhibition (Platelet [39]): Active
Activity [40]: 78%
Activity [41]: 84%
Activity [42]: 84%
Activity [6]: 69%
Activity [43]: 67%
inhibition (Platelet [44]): Active

Cl.O=C(c1cccnc1)N1CCN(c2ncccn2)CC1
Activity [45]: 40%
inhibition (Platelet [46]): Active
inhibition (Platelet [47]): Active
Activity [2]: 13%
inhibition (Platelet [48]): Active
inhibition (Platelet [30]): Active
inhibition (Platelet [49]): Active
inhibition (Platelet [50]): Active
inhibition (Platelet [51]): Active
Activity [4]: 72%
Activity [52]: 76%
Activity [6]: 74%
Activity [53]: 58%
inhibition (Platelet [44]): Active
Activity [54]: 20%
